The text below walks through data of ChEMBL document CHEMBL2029316, “Linker-based hemisuccinate derivatives of artemisinin: synthesis and antimalarial assessment against multidrug-resistant Plasmodium yoelii nigeriensis in mice” (J Med Chem, 2012).

Activity calls are given as the source filed them. The rule behind the calls is not given here.

The subject of data set [1] is Plasmodium yoelii nigeriensis. As to the kind of experiment: Antimalarial activity against chloroquine-, mefloquine-, halofantrine-resistant Plasmodium yoelii nigeriensis blood stream schizonts infected in Swiss mouse assessed as suppression of parasitemia at 24 mg/kg, im administered once daily for 4 days relative to control. Type of data set: functional. Particulars: route intramuscular.

Data set [2] can be described thus: Drug degradation in aqueous NaHCO3 under ambient temperature within 48 hrs. Type of data set: physicochemical. Particulars: buffer.
Data set [3] deals with Plasmodium yoelii nigeriensis. Nature of the data set: Antimalarial activity against chloroquine-, mefloquine-, halofantrine-resistant Plasmodium yoelii nigeriensis blood stream schizonts infected in Swiss mouse assessed as suppression of parasitemia at 48 mg/kg, im administered once daily for 4 days relative to control. In kind it is functional. Particulars: route intramuscular.

Data set [4] is described as follows: Drug degradation in aqueous Na2CO3 under ambient temperature within 48 hrs. Type of data set: physicochemical. Particulars: buffer.
Data set [5] has as its system Plasmodium yoelii nigeriensis. Nature of the data set: Antimalarial activity against chloroquine-, mefloquine-, halofantrine-resistant Plasmodium yoelii nigeriensis blood stream schizonts infected in Swiss mouse assessed as disease cured mouse at 12 mg/kg, im administered once daily for 4 days measured on day 28. More on the design: dose 12 mg/kg. Type of data set: functional, organism-based.

In data set [6] the test system is Plasmodium yoelii nigeriensis. Nature of the data set: Antimalarial activity against chloroquine-, mefloquine-, halofantrine-resistant Plasmodium yoelii nigeriensis blood stream schizonts infected in Swiss mouse assessed as disease cured mouse at 48 mg/kg, im administered once daily for 4 days measured on day 28. Type of data set: functional, organism-based. More on the design: dose 48 mg/kg.

Data set [7] has as its system Plasmodium yoelii nigeriensis. As to the kind of experiment: Antimalarial activity against chloroquine-, mefloquine-, halofantrine-resistant Plasmodium yoelii nigeriensis blood stream schizonts infected in Swiss mouse assessed as suppression of parasitemia at 12 mg/kg, im administered once daily for 4 days relative to control. In kind it is functional. Particulars: route intramuscular.

Data set [8] can be described thus: Lipophilicity, log P of the compound. Type of data set: physicochemical. Particulars: octanol/water.
In data set [9] the test system is Plasmodium yoelii nigeriensis. As to the kind of experiment: Antimalarial activity against chloroquine-, mefloquine-, halofantrine-resistant Plasmodium yoelii nigeriensis blood stream schizonts infected in Swiss mouse assessed as disease cured mouse at 24 mg/kg, im administered once daily for 4 days measured on day 28. Type of data set: functional, organism-based. Also on record: dose 24 mg/kg.

For data set [10], the system named is Plasmodium yoelii nigeriensis. As to the kind of experiment: Antimalarial activity against chloroquine-, mefloquine-, halofantrine-resistant Plasmodium yoelii nigeriensis blood stream schizonts infected in Swiss mouse assessed as disease cured mouse at 6 mg/kg, im administered once daily for 4 days measured on day 28. In kind it is functional, organism-based. More on the design: dose 6 mg/kg.

The test system of data set [11] is Plasmodium yoelii nigeriensis. Nature of the data set: Antimalarial activity against chloroquine-, mefloquine-, halofantrine-resistant Plasmodium yoelii nigeriensis infected in Swiss mouse assessed as protection from infection at 3 to 48 mg/kg, im administered once daily for 4 days measured on day 28 relative to artesunic acid. The following applies: dose mg/kg 3-48; route intramuscular. Type of data set: functional.

Data set [12] deals with Plasmodium yoelii nigeriensis. Nature of the data set: Antimalarial activity against chloroquine-, mefloquine-, halofantrine-resistant Plasmodium yoelii nigeriensis blood stream schizonts infected in Swiss mouse assessed as suppression of parasitemia at 6 mg/kg, im administered once daily for 4 days relative to control. In kind it is functional. Particulars: route intramuscular.

The logP is a log measure of how a compound divides between an organic and an aqueous phase. Higher therefore signals higher lipophilicity. On to `C[C@H]1[C@@H](OCCCCCCCCCCOC(=O)CCC(=O)O)O[C@@H]2O[C@@]3(C)CC[C@H]4[C@H](C)CC[C@@H]1[C@@]24OO3`, for which the Activity in data set [1] amounted to 100%; in [3], 100%; in data set [7], 98.18%. Besides, the Drug degradation result in data set [2] and in data set [4] was “Not Active” each time. Further, the result in data set [5] was inactive. Besides, the result in [6] was Active. Further, in data set [8], the logP amounted to 5.95.
As to `C[C@H]1[C@H](OC(=O)CCC(=O)O)O[C@@H]2O[C@@]3(C)CC[C@H]4[C@H](C)CC[C@@H]1[C@@]24OO3` [ARTESUNATE], the figures for the Activity in data set [1], in data set [3] and in data set [7] were 100%, 100% and 96.36%, respectively. The Drug degradation result in data set [2] and in data set [4] was “Active” in each case. Moreover, the outcome in data set [9] and in [5] was inactive. The outcome in data set [6] was Active.
With `C[C@H]1[C@@H](OCCCCCCCCCCCCOC(=O)CCC(=O)O)O[C@@H]2O[C@@]3(C)CC[C@H]4[C@H](C)CC[C@@H]1[C@@]24OO3`, the Activity in data set [1] is on record as 100%; in data set [3] it was 100%; in data set [7], 71.27%; in [12] it was 57.09%. The outcome in [10] and in [5] was inactive. The result in data set [9] and in data set [6] was Active. Besides, the “fold change (FC)” value in data set [11] is recorded as 2. The same compound registered a logP in data set [8] of 6.78.
